According to US7432300B2, “Gossypol co-crystals and the use thereof” (The Regents of the University of Michigan, priority 2004, dated 2008):

Type: physicochemical
Protocol: (−)-Gossypol acetic acid co-crystals were yellow or pale yellow and needle shaped. […] The co-crystals were insoluble in water. The uncorrected melting point of the co-crystals was determined to be 178-180° C. using a Mel-Temp apparatus.

With `Cc1cc2c(C(C)C)c(O)c(O)c(C=O)c2c(O)c1-c1c(C)cc2c(C(C)C)c(O)c(O)c(C=O)c2c1O` [(−)-Gossypol acetic acid co-crystals, (−)-gossypol acetic acid] the solubility in acetone was “readily soluble”, the solubility in chloroform was “slightly soluble” and the solubility in ethanol was “slightly soluble”. For the same compound, the solubility in ether was “readily soluble”, the solubility in petroleum was “sparsely soluble” and the solubility in water was “insoluble”.
